Experiments:
[1] = molecular target: T1, Sdh (succinate dehydrogenase; complex II) (Mus musculus, UniProt Q8K2B3); assay: complex II enzyme activity microplate assay, Lineweaver-Burk plot; type: biochemical; conditions: sodium succinate hexahydrate varied in activity buffer with phospholipid mixture
[2] = molecular target: T1, Sdh (succinate dehydrogenase; complex II); assay: complex II enzyme activity microplate assay, Dixon plot; type: biochemical

T1 sequence (Q8K2B3 43-664): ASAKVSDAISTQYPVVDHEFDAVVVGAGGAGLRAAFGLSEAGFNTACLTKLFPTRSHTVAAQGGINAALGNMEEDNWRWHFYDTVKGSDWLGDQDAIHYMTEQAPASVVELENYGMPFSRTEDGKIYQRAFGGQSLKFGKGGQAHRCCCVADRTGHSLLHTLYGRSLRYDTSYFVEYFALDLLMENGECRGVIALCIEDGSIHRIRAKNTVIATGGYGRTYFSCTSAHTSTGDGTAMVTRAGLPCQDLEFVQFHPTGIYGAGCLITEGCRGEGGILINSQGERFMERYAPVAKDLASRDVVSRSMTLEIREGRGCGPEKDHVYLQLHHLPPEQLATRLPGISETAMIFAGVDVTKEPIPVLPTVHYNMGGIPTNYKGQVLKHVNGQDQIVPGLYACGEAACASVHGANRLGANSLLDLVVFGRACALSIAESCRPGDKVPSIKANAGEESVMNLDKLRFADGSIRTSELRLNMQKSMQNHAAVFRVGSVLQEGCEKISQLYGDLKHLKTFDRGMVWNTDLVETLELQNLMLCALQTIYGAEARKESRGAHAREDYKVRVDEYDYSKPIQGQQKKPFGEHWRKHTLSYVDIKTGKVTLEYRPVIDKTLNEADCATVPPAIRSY
T1 sequence (Q9CQA3 31-282 partner): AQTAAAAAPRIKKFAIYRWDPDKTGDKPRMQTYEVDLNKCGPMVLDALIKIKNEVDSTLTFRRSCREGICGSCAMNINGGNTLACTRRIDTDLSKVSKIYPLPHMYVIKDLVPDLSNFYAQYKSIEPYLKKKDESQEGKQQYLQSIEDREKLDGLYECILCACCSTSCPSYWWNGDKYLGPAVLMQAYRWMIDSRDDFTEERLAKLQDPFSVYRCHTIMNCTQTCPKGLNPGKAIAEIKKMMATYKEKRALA
T1 sequence (Q9CZB0 30-169 partner): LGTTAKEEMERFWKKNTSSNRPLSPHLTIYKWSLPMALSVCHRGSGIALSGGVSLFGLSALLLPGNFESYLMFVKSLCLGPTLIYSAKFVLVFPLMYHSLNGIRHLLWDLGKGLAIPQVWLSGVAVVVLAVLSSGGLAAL
T1 sequence (Q9CXV1 57-159 partner): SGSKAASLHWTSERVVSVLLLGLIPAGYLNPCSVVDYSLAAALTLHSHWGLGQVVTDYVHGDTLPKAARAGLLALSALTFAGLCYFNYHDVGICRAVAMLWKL

Row | Structure (SMILES) | Km [1] [µM] | Ki [2] [µM]
1 | O=C(O)CCC(=O)O [succinate] | 290 ± 800 | 
2 | C=C(CC(=O)O)C(=O)O [itaconate] |  | 220
